Data from PMC6751662, “Pharmacological and functional similarities of the human neuropeptide Y system in C. elegans challenges phylogenetic views on the FLP/NPR system” (Cell Communication and Signaling : CCS, 2019).
Ends that are not written are not given here.

Key:
[1] = Solubility of crude peptides in RP-HPLC purification solvents; type: physicochemical; conditions: for solubility of crude peptide at basic pH: 10 mM (NH4)2CO3, pH 8.5, used for purification; for solubility of crude peptide: H2O + 0.1% TFA / acetonitrile + 0.08% TFA (RP-HPLC purification conditions)
Method: C-terminally amidated peptides were synthesized in 15 μmol scale by solid-phase peptide synthesis following the Fmoc/tert-butyl strategy (reviewed in [18]) on Rink amide resin using an automated Syro II peptide synthesizer (MultiSynTech). Automated coupling reactions were performed as double couplings using 8 eq Nα-protected amino acid, activated in situ with equimolar amounts of Oxyma and […] in dimethylformamide (DMF) for 30 min. Automated Fmoc deprotection was carried out with 40% (v/v) piperidine in DMF for 3 min and 20% (v/v) piperidine in DMF for 10 min. Reactive side chains of amino acids were protected by tert-butyl (tBu for Tyr, Ser, Asp, Glu, Thr), trityl (Trt for Asn, Gln, His), 2,2,4,6,7-pentamethyldihydrobenzofuran-5-sulfonyl (Pbf for Arg) and tert-butyloxycarbonyl (Boc for Lys). Peptides were cleaved off the resin using trifluoroacetic acid (TFA)/H2O/triisopropylsilane (90/5/5, v/v/v) for 2.5 h at room temperature and precipitated in ice cold diethyl ether. All peptides were purified to > 95% purity by RP-HPLC (Shimadzu) using a Phenomenex Jupiter 10 μm Proteo 90 Å (C12) column. For most peptides, linear gradients of H2O + 0.1% trifluoroacetic acid (TFA) (eluent A) and acetonitrile (ACN) + 0.08% TFA (eluent B) were applied at a flow rate of 10 ml/minute. […] FLP-27, FLP-33, and FLP-34 were solubilized by ultrasonication at 50 °C for 10 min and subsequently purified under standard solvent conditions used pre-heated HPLC systems. […] Peptide identity was verified by matrix-assisted laser desorption/time of flight (MALDI-ToF; Ultraflex III MALDI-ToF/ToF, Bruker Daltonics) mass spectrometry, and peptide purity was evaluated with analytical RP-HPLC.

Y1R = target: T1, Y1R (Homo sapiens, UniProt P25929); assay: IP accumulation assay, chimeric GαΔ6qi4myr, Y1R; type: cell-based; conditions: chimeric GαΔ6qi4myr co-transfected, transiently transfected HEK293 cells, mean of at least three independent experiments
T1 construct: expressed in transfected cells; host or cells: HEK293, transient
T1 sequence (P25929 1-384): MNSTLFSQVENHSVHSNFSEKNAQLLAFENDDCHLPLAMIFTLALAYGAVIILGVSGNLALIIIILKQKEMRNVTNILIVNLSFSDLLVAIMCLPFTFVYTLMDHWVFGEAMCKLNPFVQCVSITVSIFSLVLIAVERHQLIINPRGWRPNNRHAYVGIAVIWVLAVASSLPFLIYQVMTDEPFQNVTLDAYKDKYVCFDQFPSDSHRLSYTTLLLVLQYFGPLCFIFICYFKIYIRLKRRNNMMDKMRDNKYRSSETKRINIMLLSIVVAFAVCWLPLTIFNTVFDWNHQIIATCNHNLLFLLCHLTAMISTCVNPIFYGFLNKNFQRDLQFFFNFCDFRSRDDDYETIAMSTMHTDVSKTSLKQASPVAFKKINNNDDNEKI
Method: (§1) For measuring IP accumulation, HEK293 cells grown to 70–80% confluency in 6-well plates were transiently co-transfected using Metafectene Pro (2.5 μl/μg DNA; Biontex) with plasmids containing receptor and/or mock (empty pcDNA3.1) (for endogenous Gq-coupling) using 4 μg total DNA in a ratio of 3:1 following the manufacturer’s instructions. For testing Gα16- and GαΔ6qi4myr-coupling, plasmids encoding the corresponding Gα protein were co-transfected instead of mock. Gα16 is naturally promiscuous and stimulates the phospholipase C (PLC) pathway leading to IP production, while the exchange of the C-terminal four amino acids of Gαq for the corresponding residues of Gαi1 in the chimeric GαΔ6qi4myr confers the ability to couple to Gi/o protein-preferring receptors but still stimulate PLC, thus specifically redirecting downstream cellular signaling. 16 h post transfection, the cells were seeded into white 384-well plates at a density of 20,000 cells/well. Media was removed 24 h later and the cells were incubated with the indicated concentration of peptides for 1 h in HBSS + 20 mM LiCl. IP accumulation was measured with the HTRF-based IP-One Gq kit (Cisbio) on a microplate reader (Tecan Spark).
(§2) For in vitro activation, data is presented as mean ± SEM of at least three independent experiments conducted in technical triplicate. […] For the C. elegans NPRs, we considered the strongest response elicited by any of the peptides downstream of a particular receptor as the receptor’s maximal signal. This may or may not be the biological maximum that can be reached by the ‘true’ endogenous agonist. For the human receptors, the response to the established endogenous agonist reflected the maximal signal.

Y2R = target: T2, Y2R (Homo sapiens, UniProt P49146); assay: IP accumulation assay, chimeric GαΔ6qi4myr, Y2R; type: cell-based; conditions: chimeric GαΔ6qi4myr co-transfected, transiently transfected HEK293 cells, mean of at least three independent experiments
T2 construct: expressed in transfected cells; host or cells: HEK293, transient
T2 sequence (P49146 1-381): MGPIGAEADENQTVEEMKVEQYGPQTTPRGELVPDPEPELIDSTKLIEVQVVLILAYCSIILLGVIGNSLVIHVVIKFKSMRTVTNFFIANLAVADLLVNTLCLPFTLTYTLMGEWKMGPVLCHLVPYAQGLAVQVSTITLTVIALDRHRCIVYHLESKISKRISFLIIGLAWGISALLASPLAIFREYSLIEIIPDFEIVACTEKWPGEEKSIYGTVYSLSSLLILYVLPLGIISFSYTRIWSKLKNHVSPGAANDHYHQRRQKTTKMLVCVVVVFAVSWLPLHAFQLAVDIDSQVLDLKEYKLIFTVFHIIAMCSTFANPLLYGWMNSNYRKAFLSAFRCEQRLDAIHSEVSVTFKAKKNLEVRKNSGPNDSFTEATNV
Method: as §1, §2

NPFF2R = target: T3, NPFF2R (Homo sapiens, UniProt Q9Y5X5); assay: IP accumulation assay, chimeric GαΔ6qi4myr, NPFF2R; type: cell-based; conditions: chimeric GαΔ6qi4myr co-transfected, transiently transfected HEK293 cells, mean of at least three independent experiments
T3 construct: expressed in transfected cells; host or cells: HEK293, transient
Method: as §1, §2

PrRPR = target: T4, PrRPR (Homo sapiens, UniProt P49683); assay: IP accumulation assay, endogenous Gαq coupling, PrRPR; type: cell-based; conditions: transiently transfected HEK293 cells, mean of at least three independent experiments
T4 construct: expressed in transfected cells; host or cells: HEK293, transient
T4 sequence (P49683 1-370): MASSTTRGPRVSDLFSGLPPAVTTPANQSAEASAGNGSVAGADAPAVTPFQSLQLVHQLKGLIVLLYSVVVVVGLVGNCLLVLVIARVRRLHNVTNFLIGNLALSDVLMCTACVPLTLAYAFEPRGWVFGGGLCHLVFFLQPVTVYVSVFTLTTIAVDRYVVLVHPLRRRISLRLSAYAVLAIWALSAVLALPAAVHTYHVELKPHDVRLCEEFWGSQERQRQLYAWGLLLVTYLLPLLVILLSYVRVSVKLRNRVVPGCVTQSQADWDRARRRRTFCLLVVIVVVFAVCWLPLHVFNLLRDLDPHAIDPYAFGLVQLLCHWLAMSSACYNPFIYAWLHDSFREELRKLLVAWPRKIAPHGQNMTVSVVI
Method: as §1, §2

T3 sequence (Q9Y5X5 103-522): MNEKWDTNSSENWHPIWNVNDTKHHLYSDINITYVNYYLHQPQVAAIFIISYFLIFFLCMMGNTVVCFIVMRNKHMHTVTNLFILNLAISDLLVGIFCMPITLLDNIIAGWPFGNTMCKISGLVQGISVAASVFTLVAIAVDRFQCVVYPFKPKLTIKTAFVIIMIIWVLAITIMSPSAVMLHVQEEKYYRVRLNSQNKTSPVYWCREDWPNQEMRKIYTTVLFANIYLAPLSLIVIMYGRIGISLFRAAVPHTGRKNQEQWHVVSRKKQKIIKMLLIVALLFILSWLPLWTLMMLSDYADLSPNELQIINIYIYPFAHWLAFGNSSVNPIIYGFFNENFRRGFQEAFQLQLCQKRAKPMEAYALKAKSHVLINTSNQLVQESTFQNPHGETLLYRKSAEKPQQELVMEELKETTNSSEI

Row | IP accumulation, x-fold of basal (mean), Y1R (Y1R; 0.1 µM peptide) | IP accumulation, x-fold of basal (mean), Y1R (Y1R; 10 µM peptide) | IP accumulation, x-fold of basal (mean), Y2R (Y2R; 0.1 µM peptide) | IP accumulation, x-fold of basal (mean), Y2R (Y2R; 10 µM peptide) | IP accumulation, x-fold of basal (mean), NPFF2R (NPFF2R; 0.1 µM peptide) | IP accumulation, x-fold of basal (mean), NPFF2R (NPFF2R; 10 µM peptide) | IP accumulation, x-fold of basal (mean), PrRPR# (PrRPR; 0.1 µM peptide) | IP accumulation, x-fold of basal (mean), PrRPR# (PrRPR; 10 µM peptide) | Substance | solubility of crude peptide at basic pH [1] | solubility of crude peptide [1]
1 | 1.25 x-fold of basal | 3.68 x-fold of basal | 2.81 x-fold of basal | 1.41 x-fold of basal | 1.10 x-fold of basal | 2.86 x-fold of basal | 1.04 x-fold of basal | 1.27 x-fold of basal | AGSDPNFLRF-NH2 [FLP-1-2, C. elegans FMRFamide-like peptide, C-terminally amidated, synthesized by SPPS] |  | 
2 | 17.01 x-fold of basal | 25.89 x-fold of basal | 3.40 x-fold of basal | 12.24 x-fold of basal | 0.95 x-fold of basal | 1.44 x-fold of basal | 0.99 x-fold of basal | 1.01 x-fold of basal | APLEPVYPGDNATPEQMAQYAADLRRYINMLTRPRY-NH2 [PP, human pancreatic polypeptide, reference compound] |  | 
3 | 2.37 x-fold of basal | 1.93 x-fold of basal | 0.76 x-fold of basal | 2.05 x-fold of basal | 1.07 x-fold of basal | 2.36 x-fold of basal | 0.85 x-fold of basal | 0.86 x-fold of basal | ASPSFIRF-NH2 [FLP-4-2, C. elegans FMRFamide-like peptide, C-terminally amidated, synthesized by SPPS] |  | 
4 | 1.02 x-fold of basal | 1.69 x-fold of basal | 0.88 x-fold of basal | 4.08 x-fold of basal | 0.88 x-fold of basal | 2.44 x-fold of basal | 1.20 x-fold of basal | 1.41 x-fold of basal | APKPKFIRF-NH2 [FLP-5-1, C. elegans FMRFamide-like peptide, C-terminally amidated, synthesized by SPPS] |  | 

The remaining lines, values behind:

Row | Substance | IP accumulation, x-fold of basal (mean), Y1R (Y1R; 0.1 µM peptide) | IP accumulation, x-fold of basal (mean), Y1R (Y1R; 10 µM peptide) | IP accumulation, x-fold of basal (mean), Y2R (Y2R; 0.1 µM peptide) | IP accumulation, x-fold of basal (mean), Y2R (Y2R; 10 µM peptide) | IP accumulation, x-fold of basal (mean), NPFF2R (NPFF2R; 0.1 µM peptide) | IP accumulation, x-fold of basal (mean), NPFF2R (NPFF2R; 10 µM peptide) | IP accumulation, x-fold of basal (mean), PrRPR# (PrRPR; 0.1 µM peptide) | IP accumulation, x-fold of basal (mean), PrRPR# (PrRPR; 10 µM peptide) | solubility of crude peptide at basic pH [1] | solubility of crude peptide [1]
5 | GLGPRPLRF-NH2 [FLP-21] |  |  |  |  |  |  |  |  | improved solubility at basic pH | partly insoluble
6 | RGPSGPLRF-NH2 [FLP-15-2] |  |  |  |  |  |  |  |  | improved solubility at basic pH | partly insoluble
7 | TPDINPAWYASRGIRPVGRF-NH2 [PrRP20, human prolactin-releasing peptide, 20 residues, reference compound] | 0.82 x-fold of basal | 2.68 x-fold of basal | 0.81 x-fold of basal | 5.05 x-fold of basal | 1.75 x-fold of basal | 2.32 x-fold of basal | 26.01 x-fold of basal | 27.38 x-fold of basal |  | 
8 | PrRP31 [reference compound] | 0.87 x-fold of basal | 1.86 x-fold of basal | 0.76 x-fold of basal | 5.57 x-fold of basal | 1.83 x-fold of basal | 2.28 x-fold of basal | 25.49 x-fold of basal | 25.47 x-fold of basal |  | 
9 | SEVPGVLRF-NH2 [FLP-18-5] |  |  |  |  |  |  |  |  | improved solubility at basic pH | partly insoluble
10 | TSGPLGNLAEELNGYSRKKGGFSFRF-NH2 [QRFP26, human pyroglutamylated RFamide peptide, 26 residues, reference compound] | 1.32 x-fold of basal | 2.75 x-fold of basal | 1.30 x-fold of basal | 10.62 x-fold of basal | 1.85 x-fold of basal | 2.58 x-fold of basal | 1.06 x-fold of basal | 1.91 x-fold of basal |  | 
